This note sets out measurements from patent US20040132817A1, “Use of an histone deacetylase inhibitor for the treatment of diseases associated with an hpv infection” (priority 2001, published 2004).

Test [1] concerns HPV16 E6/E7 transcription. Description: Northern blot of HPV16 transcription in "1321" keratinocytes. Format: cell-based. The protocol:
Keratinocytes immortalized with HPV16 E6/E7 either under control of (A) the homologues viral upstream regulatory region (,1637″) or (B) of the β-actin promoter (,1321″) were incubated with NaB for various periods of time. 5 μg of RNA was separated in 1% agarose gels. The filters were hybridized with probes specific for HPV16, p21^CIP1 (=p21), β-actin and GAPDH. The positions of the 28S and 18S ribosomal RNA are indicated. (Contr.): untreated cells.
(A) 5 μg of RNA was separated in 1% agarose gels. The filters were hybridized with HPV 16, p21^CIP1 (=) p21 and GAPDH-specific probes. The positions of the 28S and 18S ribosomal RNA are indicated.
Total cellular RNA was extracted according to the guanidinium-thiocyanate procedure (Chomczynski and Sacchi, Anal. Biochem. 162 (1987), 156-159). Approximately 5 μg RNA were separated on 1% agarose gels in the presence of ethidium bromide under non-denaturing conditions and transferred to GeneScreen Plus membranes (DuPont, Bad Homburg, Deutschland). The filters were hybridized under stringent conditions with specific probes, which were labeled with ^32p-dCTP by random priming (Feinberg and Vogelstein, Anal. Biochem. 137 (1984), 266-267).

The subject of test [2] is pRb. Description: Western blot of pRb in HeLa cells. In kind it is cell-based, human. The conditions noted are these: 16 hours. The method, then:
(B and C) Western blot analysis. 50 μg of protein were separated in 8% (for pRb) and 12% SDS-PAGE gels. After electrotransfer, the filters were incubated with pRb, E2F-1 (B) and (C) p53 specific antibodies. Equal protein loading was confirmed with a monoclonal actin antibody.
(§1) Cellular extracts were separated in 8-12% SDS PAGE gels and electrotransferred as described elsewhere (Finzer et al., Oncogene 19 (2000), 3235-3244; Soto et al., Oncogene 18 (1999), 3187-3198). The following antibodies were used: cyclin E (HE 12), cyclin D 1 (HD 11), cdk2 (M2), (D-12; Santa Cruz Biotechnology, Inc., Santa Cruz, USA), cdk4 (C-22), cdk6 (C-21), p27^KIP1 (C-19), (K25020), p45^SKP2 (N-19), HPV18-E7 (N-19) and E2F-1 (KH95) (Santa Cruz Biotechnology, Inc. Santa Cruz, USA), p21^CIP1 (C24420; Transduction Laboratories, Lexington, USA), pRB (NCL-RB; Novocastra, UK), p16^INK4 (15126E, Pharmingen, San Diego, USA) and HPV 16 E7 (ZYMED Lab. Inc., San Francisco, USA). Cyclin A was kindly provided by M. Pagano (Pagano et al., EMBO J. 11 (1992), 961-971). Equal protein transfer and loading was routinely checked by incubating the filters with a monoclonal actin antibody (ICN Biomedicals, Ohio, USA).
Western blot analysis: 50 μg of protein was separated in 8% (for pRb) and 12% SDS-PAGE gels. After electrotransfer, the filters were incubated with pRb, E2F-1 (f) and (g) p53 specific antibodies. […]
On the technique in general: A western blot detects proteins with antibodies after separation by electrophoresis.

Test [3] has as its system p27^KIP1. Description: Western blot of p27^KIP1 in HeLa cells. In kind it is cell-based, human. The conditions noted are these: 16 hours. The protocol:
(A) Westem blot analysis. 50 μg of cellular protein were loaded on SDS-PAGE minigels. After electrotransfer, the filters were incubated with p21^CIP1, p27^KIP1, p16^INK4 and p45^SKP2. Equal protein loading was confirmed by a monoclonal actin antibody.
as §1
Western blot analysis. 50 μg of cellular protein was loaded on SDS-PAGE minigels. After electrotransfer, the filters were incubated with p21^CIP1, p27^KIP1, p16^INK4 and p45^SKP2. […]

The test system of test [4] is cdk2. Description: Histone H1 kinase assay of cdk2 complexes immunoprecipitated from HeLa cells. The note with it: for cdk2 kinase activity, time course: 6 mM sodium butyrate, 3, 6, 9, 12 and 16 hours; for cdk2 kinase activity (histone H1): 16 hours. Format: cell-based, human. From the text:
(A) Autoradiography. Cdk2 complexes were immunoprecipitated from HeLa cells and assayed for their activity using histone H1 as substrate. (“[…]”: preimmune serum).
(B) Cdk2 activity after NaB application. Upper panel: Cdk 2 complexes were immunoprecipitated and assayed for their activity using histone H1 as substrate. Lower panels: Western blot analysis of the cdk 2 complexes which were precipitated, separated in a 12% SDS-PAGE gel and immunoblotted with specific antibodies used in panel A. Loading was verified by incubation with cdk 2 antibodies.
For cell fractionation, cell monolayers were washed twice with PBS and harvested by trypsinisation. Cell extract preparation and cdk2 activity assays were exactly done as described by Blomberg and Hoffmann, Mol. Cell. Biol. 19 (1999), 6183-6194. In addition, cdk2 was immunoprecipitated and analyzed by immunoblotting. Beads used for cdk2 kinase assay were washed 3 times with lysis buffer (Blomberg and Hoffmann, 1999), incubated with Laemmli sample buffer and boiled for 5 min. Supernatant was analyzed by SDS-PAGE gels. Immunoblotting was carried out with the following antibodies: p21^CIP1 (C24420) and p27^KIP1 (K25020; Transduction Laboratories) or HPV18-E7 (N-19; Santa Cruz, Inc.). Cdk2 specific antibodies or preimmune serum were kindly provided by I. Hoffmann (DKFZ, Heidelberg).
Autoradiography. Cdk2 complexes were immunoprecipitated from HeLa cells and assayed for their activity using histone H1 as substrate. (“PI”: preimmune serum).
Autoradiography. Cdk2 complexes were immunoprecipitated from HeLa cells and assayed for their activity as in (c). […] (Contr.): untreated cells harvested after 3, 6, 9, 12, and 16 hours.

For test [5], the system named is cyclin E. Description: Western blot of cyclin E in HeLa cells. Format: cell-based, human. The note with it: 16 hours. The method, then: 50 μg of protein were separated on 12% SDS-PAGE minigels. After electrotransfer, the filters were incubated with antibodies against cyclin D1, cyclin E, cyclin A or cdk2, cdk4 or cdk6 specific antibodies. Equal protein loading was confirmed by reincubating the filters with a monoclonal actin antibody.
as §1
50 μg of protein was separated on 12% SDS-PAGE minigels. […]

Each structure is given as a SMILES string.

On to `CCCC(=O)[O-].[Na+]` [sodium butyrate], for which the “HPV16 transcription, time course” value in test [1] ("1321" cells, NaB, induced three hours after treatment) is “strong upregulation”. For the same compound, in test [1] (NaB, 16 hours), the “HPV mRNA after longer incubation” value is listed as “declined to basal levels”. Further, the pRb protein level result in test [2] (6 mM sodium butyrate) is on record as “totally degraded”. Besides, the “p27^KIP1 protein level” value in test [3] (6 mM sodium butyrate) is on record as “significantly induced”. The “cdk2 kinase activity, time course” value in test [4] is “still active after 9 hours, but abruptly declined 3 hours later”; in test [4] (listed as NaB) it was “remained active up to 9 hours, but immediately declined between 12-16 hours”. Moreover, in test [4] (6 mM sodium butyrate, vs untreated control), the “cdk2 kinase activity (histone H1)” value is reported as “completely abolished”. For the same compound, the “cyclin E protein level” value in test [5] (6 mM sodium butyrate) was “strongly increased”.
Take `CC(/C=C/C(=O)NO)=C\[C@@H](C)C(=O)c1ccc(N(C)C)cc1` [trichostatin A]: the “divergent HPV16 regulation in "1637" and "1321" cells” value in test [1] (TSA (data not shown)) is “Analogous results”. Also, the pRb protein level result in test [2] (330 nM trichostatin A) was “Mediates pRB Degradation”. Further, the “p27^KIP1 protein level” value in test [3] (330 nM trichostatin A) is recorded as “Upregulates”. Further, the “cdk2 kinase activity (histone H1)” value in test [4] (330 nM trichostatin A) is reported as “Suppresses”. Moreover, the “cyclin E protein level” value in test [5] (330 nM trichostatin A) is recorded as “Upregulates”.
